This data set is described as follows: Mass balance: excretion and recovery of 14C total radioactivity in urine and feces. It counts as in vivo, human. The source says:
Methodology: This was an open-label, single-dose, single-center, mass balance, Phase 1 study in healthy male volunteers. There were two study periods: a Screening Period, during which subjects underwent assessments to determine their eligibility for the study, and an On-study Period, which started on Day-1 (‘check-in’ day) when the subject was admitted to the Celerion clinic. […] However, subjects who were discharged from the clinic before Day 28 were required to return to the clinic for all remaining scheduled pharmacokinetic blood sampling and the Day 28 safety assessments. Subjects not meeting radioactivity release criteria by Day 28 could be asked to remain confined in the clinic or continue collection of urine and feces at home (returning samples to the clinic daily) for up to an additional 7 days (through to Day 35). Due to the fact that by Day 35 subjects had still not met release criteria, subjects were given the option of withdrawing from the study or completing the additional 14-day collection period (either in the clinic or as a daily visitor) with urine and feces collections and daily adverse event (AE) inquiries. All urine and fecal collections for all subjects stopped following the conclusion of the Day 49 scheduled events regardless of percentage of total radioactive dose recovered.
A single dose oral solution was administered at Hour 0 on Day 1 by the clinic staff. The dose was given via the scintillation vial. Following dosing, the scintillation vial was rinsed 3 times with room temperature distilled water, and the rinsate was administered to the subject. Residual radioactivity was determined for each dosing vial. The total volume of liquid administered including radiolabelled study drug, rinses, and water given for dosing (in addition to the rinses) was the same for each subject.
Mass balance was calculated as the percent of total administered radioactivity recovered in urine and feces. For the purpose of calculating mass balance, the amount of administered radioactivity was defined as the total radioactivity in the dosing solution minus any radioactivity lost due to emesis (if any occurred), adsorption to the dosing vial, etc.
Subjects were asked to empty their bladders within approximately 60 minutes prior to dosing for the pre-dose sample. Samples were collected during the 0 to 8 hours and 8 to 24 hours post-dose intervals, and then continuing in 24-hour intervals through Day 49. For subjects who met early release criteria, sampling could cease upon discharge from the clinic. […] One subject was released from the clinic following the 864 hour interval (Day 37) collection and no longer provided excreta samples.
Subjects were asked to bring a pre-dose stool sample with them at check-in (produced within 24 hours of check-in). Stools produced between subject check-in and dosing were collected for the pre-dose sample as well, and the sample produced nearest to dosing was used as the pre-dose sample. Post-dose stools were collected in 24-hour intervals through the morning of Day 49. For subjects who met early release criteria, sampling could cease upon discharge from the clinic. […] One subject was released from the clinic following the 864 hour interval (Day 37) collection and no longer provided excreta samples.
For each subject, multiple fecal specimens from each 24-hour interval were combined into a pre-weighed wide mouth polypropylene/polyethylene container and appropriately labeled. For each interval, the fecal sample was weighed to determine the final fecal weight. Each sample was homogenized into a slurry (approximately 20% suspension in water) from which the necessary aliquots were taken.
Mass balance was calculated as the percent of total administered radioactivity recovered in urine and feces. […]

Where [1] appears, read: single 175 mg oral dose, through 48 days, mean ± SD (% CV), n = 8.

Molecules are shown by their SMILES. Where “and” joins values, the source holds several entries; their conditions need not be identical. Equal values may be shown once.

Regarding `COc1cc2nccc(Oc3ccc(NC(=O)C4(C(=O)Nc5ccc(F)cc5)CC4)cc3)c2cc1OC` [XL184, N-(4-{[6,7-bis(methyloxy)quinolin-4-yl]oxy}phenyl)-N′-(4-fluorophenyl)cyclopropane-1,1-dicarboxamide], the “Urine cumulative excretion of 14C total radioactivity” value (“Urine cumulative excretion” below) runs as follows: (Day 1 (24 hrs), individual subjects) 2.32% and 4.30% and 3.22% and 7.81% and 3.81% and 3.89% and 4.78% and 3.38%; (Day 1 (24 hrs), mean) 4.19%; (Day 2 (48 hrs), individual subjects) 4.70% and 8.75% and 6.39% and 14.86% and 7.68% and 8.34% and 9.68% and 7.07%; (Day 2 (48 hrs), mean) 8.43%; (Day 3 (72 hrs), individual subjects) 7.26% and 13.09% and 9.22% and 20.34% and 11.00% and 12.23% and 13.67% and 9.75%; (Day 3 (72 hrs), mean) 12.07%. The “Urine cumulative excretion” value runs as follows: (Day 4 (96 hrs), individual subjects) 9.65% and 16.19% and 11.53% and 24.39% and 13.47% and 15.11% and 16.57% and 12.11%; (Day 4 (96 hrs), mean) 14.88%; (Day 5 (120 hrs), individual subjects) 11.74% and 18.60% and 13.44% and 27.04% and 15.59% and 17.46% and 18.91% and 13.86%; (Day 5 (120 hrs), mean) 17.08%; (Day 6 ([…]), mean) 18.72%; (Day 7 ([…]), mean) 20.04%. In addition, the “Urine cumulative excretion” value was 16.27% and 23.34% and 16.60% and 31.32% and 19.36% and 21.56% and 23.11% and 18.17% (Day 8 (192 hrs), individual subjects); 21.22% (Day 8 (192 hrs), mean); 17.35% and 24.24% and 17.22% and 32.02% and 20.33% and 22.44% and 23.99% and 19.02% (Day 9 (216 hrs), individual subjects); 22.08% (Day 9 (216 hrs), mean); 18.26% and 25.17% and 17.67% and 32.59% and 21.12% and 23.24% and 24.71% and 19.68% (Day 10 (240 hrs), individual subjects); 22.81% (Day 10 (240 hrs), mean). Besides, for the setting “Day 11 ([…]), mean”, the “Urine cumulative excretion” value stood at 23.42%. In addition, the “Cumulative recovery of total radioactivity in feces” value under setting [1] is reported as 53.79% of Dose. For the same molecule, the “Cumulative recovery of total radioactivity in urine” value under setting [1] is 27.29% of Dose. Further, the “Cumulative recovery of total radioactivity, total (urine and feces)” value (single 175 mg oral dose, within 48 days, mean ± SD (% CV), n = 8) is recorded as 81.09% of Dose.

Values taken from patent publication US11504362B2, “Liquid dosage forms to treat cancer” (Exelixis, Inc., priority 2017, dated 2022).
